Experimental data: patent US20110085978A1, “NOVEL QUINOLINYLAMIDE DERIVATIVES USEFUL AS MODULATORS OF DOPAMINE AND SEROTONIN RECEPTORS” (NeuroSearch A/S, priority 2008, published 2011)

Tested on: MK801 induced hyperactivity in female NMRI mice
Assay: MK801 induced hyperactivity
Assay type: in vivo
Conditions: test compound subcutaneously 30 minutes before test start at 3, 10, 30 mg/kg, MK801 0.2 mg/kg ip
Method: Female NMRI mice (Taconic M&B, P.O. box 1079, DK-8680 Ry, Denmark) are kept in a ventilated closed rack (Scantainer, Scanbur Ltd., Denmark) at constant temperature (21° C.) and humidity (60-70%) with a 7:00 a.m light/7:00 p.m dark cycle. Food (altromin rat pellets) and water were available ad libitum.
Experiments were conducted during daytime in the light phase. The animals were habituated to the experimental room approximately 24 hours before start of the experiments.
MK801 induced hyperactivity was measured in automated activity frames (TSE Home Cage Activity Monitoring System, MoTil, TSE technical & scientific equipment GmbH, Germany) equipped with infrared photobeam emitters and sensors. MK801 was administered in a dose of 0.2 mg/kg ip immediately before test start.
Test compound was pretreated subcutaneously 30 minutes before test start at the following doses 3, 10, 30 mg/kg in a dose volume of 10 ml/kg.

| SMILES | Minimal Effective Dose (M.E.D) that significantly reduces MK801 induced hyperactivity [mg/kg] |
| --- | --- |
| COc1ccccc1N1CCN(CCCCC(=O)Nc2ccc3ncccc3c2)CC1 [Compound A3, 5-[4-(2-Methoxy-phenyl)-piperazin-1-yl]-pentanoic acid quinolin-6-ylamide] | 10 |
| O=C(CCCCN1CCC(c2ccccc2)CC1)Nc1ccc2ncccc2c1 [Compound A4, 5-(4-Phenyl-piperidin-1-yl)-pentanoic acid quinolin-6-ylamide] | 10 |
